Usually pKi stands for −log10 of the Ki, conventionally taken in molar units. Usually pIC50 stands for −log10 of the IC50, conventionally taken in molar units.

pIC50, pKi: −log10 of the molar value. Where two headings read alike, the source gives them in different places.

In test [1] the target is T1, PAFR (Homo sapiens, UniProt P25105). Conditions: cited from earlier work; for pKi: literature values (Weber et al.; EP0368175A1), read-out: PAFR affinity (Ki).
Target sequence in this assay (P25105 whole entry, species assumed): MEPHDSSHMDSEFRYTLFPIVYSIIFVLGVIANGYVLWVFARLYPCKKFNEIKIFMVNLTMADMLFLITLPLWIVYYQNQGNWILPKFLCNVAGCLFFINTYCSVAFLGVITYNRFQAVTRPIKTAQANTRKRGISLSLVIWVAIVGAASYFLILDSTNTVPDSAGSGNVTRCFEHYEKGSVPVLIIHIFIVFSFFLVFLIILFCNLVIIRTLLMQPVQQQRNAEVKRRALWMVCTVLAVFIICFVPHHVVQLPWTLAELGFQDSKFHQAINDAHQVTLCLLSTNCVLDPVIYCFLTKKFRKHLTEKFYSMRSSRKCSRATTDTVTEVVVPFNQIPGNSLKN
Test [2] addresses T1, PAFR. Conditions: PAFR binding, Miyazawa et al.; cited from earlier work.
Target sequence in this assay (P25105 whole entry, species assumed): as above
The target of test [3] is T1, PAFR. Kind of test: cellular HTRF IP1 assay: inhibition of PAFR activation by PAF C-16 ligand (endpoint assay). It counts as cell-based. More on the design: expressed in transfected cells; host or cells: HEK293. In outline: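 HEK293 cells overexpressing human PAFR were preincubated with compound (1% DMSO) 90 min at 37°C, then challenged with 11 nM PAF C-16 for 60 min in HBSS/20 mM HEPES pH 7.4/50 mM LiCl/0.1% BSA. IP1 accumulation read by HTRF (665/620 nm emission).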
Target sequence in this assay (P25105 whole entry): as the sequence (P25105 whole entry, species assumed) above
(In TR-FRET formats the signal depends on donor and acceptor labels being close together.)

Setting [4] is: HEK293 cells overexpressing human PAFR, PAF ligand 11 nM, Table 2.
Setting [5] is: dedicated head-to-head comparison assay run: cyclopropylene vs di-methyl / cyclobutylene analogues.

With `Cc1nnc2n1-c1sc3c(c1C(c1ccccc1Cl)=NC2)CC(C(=O)N1CCOCC1)C3` (racemic) [WEB 2170 (bepafant) racemate], on PAFR [1], the negative logarithm of the Ki (pKi) is 7.82. Turning to `Cc1nnc2n1-c1sc3c(c1C(c1ccccc1Cl)=NC2)CC(C(=O)N1CCOCC1)C3` (single isomer, unassigned; (-)) [(−)-bepafant], the negative logarithm of the Ki (pKi) on PAFR [1] is 7.85.

As for `C#CCCOC(=O)N1CCc2c(sc3c2C(c2ccccc2Cl)=NC(C)c2nnc(C)n2-3)C1` (single isomer, unassigned) [compound 35 of Miyazawa et al. (+) isomer], the pIC50 on PAFR [2] is 8.55. For the compound `Cc1nnc2n1-c1sc3c(c1C(c1ccccc1Cl)=NC2C)CC(C(=O)N1CCOCC1)C3` (single isomer, unassigned; (-)) [(−) 9dB], the negative-log Ki (pKi) at PAFR [1] was 8.10. For `C#CCCOC(=O)N1CCc2c(sc3c2C(c2ccccc2Cl)=NC(C)c2nnc(C)n2-3)C1` (single isomer, unassigned) [compound 35 of Miyazawa et al. (−) isomer], the negative-log IC50 (pIC50) at PAFR [2] is 6.38. As for `C#CCCOC(=O)N1CCc2c(sc3c2C(c2ccccc2Cl)=NC(C)c2nnc(C)n2-3)C1` (racemic) [compound 22 of Miyazawa et al. racemate], the negative logarithm of the IC50 (pIC50) on PAFR [2] is 8.82. Take `C#CCCOC(=O)N1CCc2c(sc3c2C(c2ccccc2Cl)=NC(C)(C)c2nnc(C)n2-3)C1` [compound 23 of Miyazawa et al.]: the pIC50 on PAFR [2] is 6.80. Consider `C#CCCOC(=O)N1CCc2c(sc3c2C(c2ccccc2Cl)=NC(CC)c2nnc(C)n2-3)C1` (racemic) [compound 24 of Miyazawa et al. racemate], for which, at PAFR [2], the negative-log IC50 (pIC50) was 7.66. Regarding `Cc1nnc2n1-c1sc(CCC(=O)N3CCOCC3)cc1C(c1ccccc1Cl)=NC2C` (stereo not drawn) [example 1 of EP0368175A1 (−)-enantiomer], the “binding to the PAFR of (−)-enantiomer relative to (+)-enantiomer” value on PAFR [1] (see EP0368175A1) is “(−)-enantiomer 35 times stronger binding”. As for `Cc1nnc2n1-c1sc3c(c1C(c1ccccc1Cl)=NC2C)CC(C(=O)N1CCOCC1)C3` (single isomer, unassigned; (-)) [(−) 9dA], the negative logarithm of the Ki (pKi) on PAFR [1] is 7.15. Turning to `Cc1nnc2n1-c1sc3c(c1C(c1ccccc1Cl)=NC2C)CCN(C(=O)OC(C)(C)C#N)C3` (single isomer, unassigned) [compound 34 of Miyazawa et al. (+) isomer], the negative logarithm of the IC50 (pIC50) at PAFR [2] was 8.51. `Cc1nnc2n1-c1sc3c(c1C(c1ccccc1Cl)=NC2C)CC(C(=O)N1CCOCC1)C3` (single isomer, unassigned; (+)) [(+) 9dA]: the negative logarithm of the Ki (pKi) at PAFR [1] is 6.40. Consider `C#CCCOC(=O)N1CCc2c(sc3c2C(c2ccccc2Cl)=NCc2nnc(C)n2-3)C1` [compound 18 of Miyazawa et al.], for which, on PAFR [2], the pIC50 was 8.42.

With `C#CCCOC(=O)N1CCc2c(sc3c2C(c2ccccc2Cl)=NC(C)c2nnc(C)n2-3)C1` (single isomer, unassigned) [compound 22 of Miyazawa et al. (−) isomer], the pIC50 at PAFR [2] is 7.09. As to `C#CCCOC(=O)N1CCc2c(sc3c2C(c2ccccc2Cl)=NC(C)c2nnc(C)n2-3)C1` (single isomer, unassigned) [compound 22 of Miyazawa et al. (+) isomer], the pIC50 on PAFR [2] is 9.47. With `C#CCCOC(=O)N1CCc2c(sc3c2C(c2ccccc2Cl)=NC(CC)(CC)c2nnc(C)n2-3)C1` [compound 25 of Miyazawa et al.], on PAFR [2], the negative-log IC50 (pIC50) was 6.54. Turning to `Cc1nnc2n1-c1sc3c(c1C(c1ccccc1Cl)=NC2C)CCN(C(=O)OC(C)(C)C#N)C3` (single isomer, unassigned) [compound 34 of Miyazawa et al. (−) isomer], the negative logarithm of the IC50 (pIC50) on PAFR [2] is 6.30. On to `COc1ccccc1C1=NC2(CC2)c2nnc(C)n2-c2sc3c(c21)C[C@H](C(=O)N1CCOCC1)C3` [Example 130, (13′S)-9′-(2-methoxyphenyl)-3′-methyl-13′-(morpholine-4-carbonyl)-16′-thia-2′,4′,5′,8′-tetraazaspiro[cyclopropane-1,7′-tetracyclo[8.6.0.0^2,6.0^11,15]hexadecane]-1′(10′),3′,5′,8′,11′(15′)-pentaene], for which the pIC50 against PAFR [3] (setting [4]) was 7.08. In turn, `Cc1nnc2n1-c1sc3c(c1C(c1ccccc1Cl)=NC2(C)C)C[C@H](C(=O)NC1CCOCC1)C3` [reference compound] had a negative logarithm of the IC50 (pIC50) at PAFR [3] (setting [5]) of 7.19. `Cc1nnc2n1-c1sc3c(c1C(c1ccccc1Cl)=NC21CC1)C[C@H](C(=O)NC1CCc2ncsc2C1)C3` (stereo partly drawn) [Example 34]: the pIC50 on PAFR [3] (setting [4]) was 8.42.

With `Cc1nnc2n1-c1sc3c(c1C(c1ccccc1Cl)=NC21CC1)C[C@H](C(=O)N1C[C@@H](C)O[C@@H](C)C1)C3` [Example 13], the pIC50 against PAFR [3] (setting [4]) was 8.32. For the compound `Cc1nnc2n1-c1sc3c(c1C(c1ccccc1Cl)=NC2(C)C)C[C@H](C(=O)NC1(c2ccccn2)CC1)C3` [reference compound], the pIC50 on PAFR [3] (setting [5]) was 7.59. The compound `Cc1nnc2n1-c1sc3c(c1C(c1ccccc1Cl)=NC21CC1)C[C@H](C(=O)N[C@H]1C[C@H](C#N)C1)C3` [Example 49] gave a negative logarithm of the IC50 (pIC50) at PAFR [3] (setting [4]) of 8.11. Take `Cc1nnc2n1-c1sc3c(c1C(c1ccccc1Cl)=NC21CC1)C[C@H](C(=O)N(C)[C@H]1CCCC[C@H]1O)C3` [Example 102]: the negative-log IC50 (pIC50) on PAFR [3] (setting [4]) is 8.16.

On PAFR [3] (setting [5]), `Cc1nnc2n1-c1sc3c(c1C(c1ccccc1Cl)=NC21CCC1)C[C@H](C(=O)N1CCOCC1)C3` [comparative example 2, reference compound] showed a negative logarithm of the IC50 (pIC50) of 7.23. In turn, `Cc1nnc2n1-c1sc3c(c1C(c1ccccc1Cl)=NC21CC1)C[C@H](C(=O)NC1Cc2ccccc2C1)C3` [Example 31] had a negative-log IC50 (pIC50) against PAFR [3] (setting [4]) of 9.05. On the same count and under the same terms, then `Cc1nnc2n1-c1sc3c(c1C(c1ccccc1Cl)=NC21CC1)C[C@H](C(=O)N(C)[C@H]1c2ccccc2CC[C@@H]1O)C3` [Example 86], with 8.40; and `Cc1nnc2n1-c1sc3c(c1C(c1ccccc1Cl)=NC21CC1)C[C@H](C(=O)N(C)[C@@H]1CCCC[C@@H]1O)C3` [Example 41], with 8.41. Take `Cc1nnc2n1-c1sc3c(c1C(c1ccccc1Cl)=NC21CC1)C[C@H](C(=O)NC1CC1)C3` [Example 74]: the negative-log IC50 (pIC50) on PAFR [3] (setting [4]) was 8.26. `Cc1noc(C)c1NC(=O)[C@@H]1Cc2sc3c(c2C1)C(c1ccccc1Cl)=NC1(CC1)c1nnc(C)n1-3` [Example 128]: the figures for the negative-log IC50 (pIC50) against PAFR [3] (setting [4]) and at PAFR [3] (setting [5]) were 8.24 and 8.26, respectively. The compound `COc1cc(C2(NC(=O)[C@@H]3Cc4sc5c(c4C3)C(c3ccccc3Cl)=NC3(CC3)c3nnc(C)n3-5)CC2)ccn1` [Example 85] had a pIC50 against PAFR [3] (setting [4]) of 8.41. Still for that read-out and setting: then `Cc1nnc2n1-c1sc3c(c1C(c1ccccc1Cl)=NC21CC1)C[C@H](C(=O)NC1COCC(F)(F)C1)C3` (stereo partly drawn) [Example 43], with 8.43; and `Cc1nnc2n1-c1sc3c(c1C(c1ccccc1Cl)=NC21CC1)C[C@H](C(=O)N1CC2(CCCO2)C1)C3` [Example 126, (13′S)-9′-(2-chlorophenyl)-3′-methyl-13′-{5-oxa-2-azaspiro[3.4]octane-2-carbonyl}-16′-thia-2′,4′,5′,8′-tetraazaspiro[cyclopropane-1,7′-tetracyclo[8.6.0.0^2,6.0^11,15]hexadecane]-1′(10′),3′,5′,8′,11′(15′)-pentaene], with 8.03; and `Cc1nnc2n1-c1sc3c(c1C(c1ccccc1Cl)=NC21CC1)C[C@H](C(=O)N(C)[C@@H]1CCOC1)C3` [Example 48], with 8.17. In turn, `Cc1nnc2n1-c1sc3c(c1C(c1ccccc1Cl)=NC21CC1)C[C@H](C(=O)NC1CCCCC1)C3` [Example 59] showed a pIC50 on PAFR [3] (setting [4]) of 8.80. The same measure, in the same setting: then `CCN(C(=O)[C@@H]1Cc2sc3c(c2C1)C(c1ccccc1Cl)=NC1(CC1)c1nnc(C)n1-3)[C@H]1CC[C@H](O)CC1` [Example 20], with 7.96. Turning to `CCC12CC(NC(=O)[C@@H]3Cc4sc5c(c4C3)C(c3ccccc3Cl)=NC3(CC3)c3nnc(C)n3-5)(C1)C2` [Example 109], the negative-log IC50 (pIC50) on PAFR [3] (setting [4]) is 8.96. On the same count and under the same terms, for `Cc1nnc2n1-c1sc3c(c1C(c1ccccc1Cl)=NC21CC1)C[C@H](C(=O)N(C)C1CCOCC1)C3` [Example 37] the value was 8.18; for `Cc1nnc2n1-c1sc3c(c1C(c1ccccc1Cl)=NC21CC1)C[C@H](C(=O)N1CCOC(C)(C)C1)C3` [Example 10], 8.28. The same measure, in the same setting: then `Cc1nnc2n1-c1sc3c(c1C(c1ccccc1Cl)=NC21CC1)C[C@H](C(=O)N[C@H]1C[C@@H]1c1ccccc1)C3` [Example 17], with 8.92; and `CCc1nnc2n1-c1sc3c(c1C(c1ccccc1Cl)=NC21CC1)C[C@H](C(=O)N1CCOCC1)C3` [Example 119, (13′S)-9′-(2-chlorophenyl)-3′-ethyl-13′-(morpholine-4-carbonyl)-16′-thia-2′,4′,5′,8′-tetraazaspiro[cyclopropane-1,7′-tetracyclo[8.6.0.0^2,6.0^11,15]hexadecane]-1′(10′),3′,5′,8′,11′(15′)-pentaene], with 7.82. Turning to `Cc1nnc2n1-c1sc3c(c1C(c1ccccc1Cl)=NC21CC1)C[C@H](C(=O)NC1(c2ccccn2)CC1)C3` [Example 87], the pIC50 on PAFR [3] (setting [4]) was 8.31; on PAFR [3] (setting [5]) it was 8.25. On PAFR [3] (setting [4]), `Cc1nnc2n1-c1sc3c(c1C(c1ccccc1Cl)=NC21CC1)C[C@H](C(=O)NC1CC2CCC(C1)O2)C3` (stereo partly drawn) [Example 90] showed a negative-log IC50 (pIC50) of 8.06. With `Cc1nnc2n1-c1sc3c(c1C(c1ccccc1Cl)=NC21CC1)C[C@H](C(=O)N1CCC(F)(F)CC1)C3` [Example 129, (13′S)-9′-(2-chlorophenyl)-13′-(4,4-difluoropiperidine-1-carbonyl)-3′-methyl-16′-thia-2′,4′,5′,8′-tetraazaspiro[cyclopropane-1,7′-tetracyclo[8.6.0.0^2,6.0^11,15]hexadecane]-1′(10′),3′,5′,8′,11′(15′)-pentaene], the pIC50 was 8.60 against PAFR [3] (setting [4]) and 8.59 on PAFR [3] (setting [5]).

`Cc1nnc2n1-c1sc3c(c1C(c1ccccc1Cl)=NC21CC1)C[C@H](C(=O)NCC1CC1)C3` [Example 68] had a pIC50 against PAFR [3] (setting [4]) of 8.72.

Values taken from patent US11992494B2, “Cyclopentathiophene carboxamide derivatives as platelet activating factor receptor antagonists” (Boehringer Ingelheim International GmbH, priority 2021, dated 2024).
